Data published in publication PMC3596305, “Escherichia coli NemA Is an Efficient Chromate Reductase That Can Be Biologically Immobilized to Provide a Cell Free System for Remediation of Hexavalent Chromium” (PLoS ONE, 2013).

Tested on: T1, KefF_Pa
T1 construct: gene kefF
Assay: diphenylcarbazide Cr(VI) assay, Lineweaver-Burk
Format: biochemical
Details: 1 mM NADH, 50 mM Tris-Cl pH 7.0, 22°C; read-out: KM (μM) ^b
From the text: diphenylcarbazide Cr(VI) assay, Lineweaver-Burk on KefF_Pa

Q: For [O]=[Cr](=[O])([OH])[OH] [Cr(VI)], which Km is on record?
A: The Km was 140 µM.
